# Test results: the CombiSolv-Exp solvation set (Vermeire and Green 2021)
# Assay: solvent given as SMILES
compound,measurement,setting,value
CCCCOC(C)=O,"solvation free energy, 298 K",in CC(=O)N(C)C,-5.24 kcal/mol
same,"solvation free energy, 298 K",in CC(C)CCCC(C)CCCC(C)CCCCC(C)CCCC(C)CCCC(C)C,-4.52 kcal/mol
same,"solvation free energy, 298 K",in CCCCC(CC)COC(=O)CCCCC(=O)OCC(CC)CCCC,-4.89 kcal/mol
same,"solvation free energy, 298 K",in CCCCCC,-4.94 kcal/mol
same,"solvation free energy, 298 K",in CCCCCCC,-4.92 kcal/mol
same,"solvation free energy, 298 K",in CCCCCCCC,-4.9 kcal/mol
same,"solvation free energy, 298 K",in CCCCCCCCC=CCCCCCCCC(=O)OCC(COC(=O)CCCCCCCC=CCCCCCCCC)OC(=O)CCCCCCCC=CCCCCCCCC,-5.07 kcal/mol
same,"solvation free energy, 298 K",in CCCCCCCCCC,-4.75 kcal/mol
same,"solvation free energy, 298 K",in CCCCCCCCCCCCCCCC,-4.52 kcal/mol
same,"solvation free energy, 298 K",in CCCCCCCCO,-5.01 kcal/mol
same,"solvation free energy, 298 K",in CCCCN(C=O)CCCC,-5.24 kcal/mol
same,"solvation free energy, 298 K",in CNC(C)=O,-5.14 kcal/mol
same,"solvation free energy, 298 K",in CO,-5.36 kcal/mol
same,"solvation free energy, 298 K",in NC=O,-4.07 kcal/mol
same,"solvation free energy, 298 K",in O,-2.65 kcal/mol
same,"solvation free energy, 298 K",in [2H]O[2H],-2.76 kcal/mol
CCCCCCCCCCCCCC(=O)OCC,"solvation free energy, 298 K",in O,-7.32 kcal/mol
CCCCC(C)CCC (configuration not stated),"solvation free energy, 298 K",in O,3.57 kcal/mol
CCCC(=O)CCC,"solvation free energy, 298 K",in CCCCOCCCC,-5.6 kcal/mol
same,"solvation free energy, 298 K",in CO,-5.77 kcal/mol
same,"solvation free energy, 298 K",in O,-2.92 kcal/mol
CN(C)Cc1ccccc1,"solvation free energy, 298 K",in O,-5.05 kcal/mol
O=[N+]([O-])c1ccccc1,"solvation free energy, 298 K",in CCCCCC,-6.09 kcal/mol
same,"solvation free energy, 298 K",in CCCCCCC,-6.14 kcal/mol
same,"solvation free energy, 298 K",in CCCCCCCCCCCCCCCC,-6.12 kcal/mol
same,"solvation free energy, 298 K",in O,-4.23 kcal/mol
Nc1cccc([N+](=O)[O-])c1,"solvation free energy, 298 K",in CC(C)CC(C)(C)C,-8.01 kcal/mol
same,"solvation free energy, 298 K",in O,-8.84 kcal/mol
COC,"solvation free energy, 298 K",in Brc1ccccc1,-2.1 kcal/mol
same,"solvation free energy, 298 K",in CC(C)(C)O,-2.25 kcal/mol
same,"solvation free energy, 298 K",in CC(C)CCO,-1.99 kcal/mol
same,"solvation free energy, 298 K",in CC(C)CO,-2.1 kcal/mol
same,"solvation free energy, 298 K",in CC(C)O,-2.13 kcal/mol
same,"solvation free energy, 298 K",in CCC(C)(C)O,-2.22 kcal/mol
same,"solvation free energy, 298 K",in CCC(C)CO,-2.05 kcal/mol
same,"solvation free energy, 298 K",in CCC(C)O,-2.1 kcal/mol
same,"solvation free energy, 298 K",in CCC(O)CC,-2.18 kcal/mol
same,"solvation free energy, 298 K",in CCCC(C)O,-2.05 kcal/mol
same,"solvation free energy, 298 K",in CCCCCC,-1.79 kcal/mol
same,"solvation free energy, 298 K",in CCCCCCCCO,-1.87 kcal/mol
same,"solvation free energy, 298 K",in CCCCCO,-1.98 kcal/mol
same,"solvation free energy, 298 K",in CCCCO,-2.05 kcal/mol
same,"solvation free energy, 298 K",in CCCO,-2.1 kcal/mol
same,"solvation free energy, 298 K",in CN(C)C=O,-2.13 kcal/mol
same,"solvation free energy, 298 K",in CO,-2.31 kcal/mol
same,"solvation free energy, 298 K",in COC(C)=O,-2.33 kcal/mol
same,"solvation free energy, 298 K",in Cc1ccc(C)cc1,-2.03 kcal/mol
same,"solvation free energy, 298 K",in Cc1cccc(C)c1,-2.05 kcal/mol
same,"solvation free energy, 298 K",in Cc1ccccc1C,-2.04 kcal/mol
same,"solvation free energy, 298 K",in Clc1ccccc1,-2.18 kcal/mol
same,"solvation free energy, 298 K",in Ic1ccccc1,-2.03 kcal/mol
same,"solvation free energy, 298 K",in O,-1.91 kcal/mol
Clc1ccc(-c2ccc(Cl)cc2Cl)cc1,"solvation free energy, 298 K",in CCCCCCCCO,-10.7 kcal/mol
same,"solvation free energy, 298 K",in O,-2.77 kcal/mol
COc1cc(Cc2cnc(N)nc2N)cc(OC)c1OC,"solvation free energy, 298 K",in C1CCOC1,-19.9 kcal/mol
same,"solvation free energy, 298 K",in CC(C)O,-19.2 kcal/mol
same,"solvation free energy, 298 K",in CCC(C)O,-19.4 kcal/mol
same,"solvation free energy, 298 K",in CCCCO,-19.5 kcal/mol
same,"solvation free energy, 298 K",in CCCO,-19.8 kcal/mol
same,"solvation free energy, 298 K",in CCO,-19.8 kcal/mol
same,"solvation free energy, 298 K",in CO,-20.6 kcal/mol
CC(C)CC(C)(C)C,"solvation free energy, 298 K",in C1CCOC1,-4.65 kcal/mol
same,"solvation free energy, 298 K",in CC1CCS(=O)(=O)C1,-2.59 kcal/mol
same,"solvation free energy, 298 K",in CC#N,-3.11 kcal/mol
same,"solvation free energy, 298 K",in CC(C)(C)O,-3.6 kcal/mol
same,"solvation free energy, 298 K",in CC(C)O,-3.68 kcal/mol
same,"solvation free energy, 298 K",in CC(C)OC(C)C,-4.57 kcal/mol
same,"solvation free energy, 298 K",in CCC(C)=O,-4.05 kcal/mol
same,"solvation free energy, 298 K",in CCCCCCCC,-4.53 kcal/mol
same,"solvation free energy, 298 K",in CCCCCCCCCCCCCCCC,-4.26 kcal/mol
same,"solvation free energy, 298 K",in CCCCCCCCCCO,-3.9 kcal/mol
same,"solvation free energy, 298 K",in CCCCCCO,-4.07 kcal/mol
same,"solvation free energy, 298 K",in CCCCCO,-3.89 kcal/mol
same,"solvation free energy, 298 K",in CCCCCl,-4.57 kcal/mol
same,"solvation free energy, 298 K",in CCCO,-3.67 kcal/mol
same,"solvation free energy, 298 K",in CCO,-3.84 kcal/mol
same,"solvation free energy, 298 K",in CN1CCCC1=O,-3.12 kcal/mol
same,"solvation free energy, 298 K",in CN(C)C=O,-3.18 kcal/mol
same,"solvation free energy, 298 K",in COC(C)(C)C,-4.65 kcal/mol
same,"solvation free energy, 298 K",in N#CCCOCCC#N,-1.86 kcal/mol
same,"solvation free energy, 298 K",in O,2.92 kcal/mol
same,"solvation free energy, 298 K",in O=CN1CCOCC1,-2.44 kcal/mol
same,"solvation free energy, 298 K",in OCCO,-1.05 kcal/mol
same,"solvation free energy, 298 K",in OCCOCCO,-1.78 kcal/mol
same,"solvation free energy, 298 K",in OCCOCCOCCO,-1.88 kcal/mol
same,"solvation free energy, 298 K",in OCCS,-2.36 kcal/mol
CCc1ccc(CC)cc1,"solvation free energy, 298 K",in CC(C)(C)O,-6.3 kcal/mol
CCNc1nc(NC(C)CC)nc(OC)n1 (configuration not stated),"solvation free energy, 298 K",in O,-9.89 kcal/mol
CC(C)OC(C)(C)C,"solvation free energy, 298 K",in CC(=O)N(C)C,-3.75 kcal/mol
same,"solvation free energy, 298 K",in CCCCN(C=O)CCCC,-3.87 kcal/mol
same,"solvation free energy, 298 K",in CN1CCCCC1=O,-3.66 kcal/mol
same,"solvation free energy, 298 K",in CNC(C)=O,-3.62 kcal/mol
same,"solvation free energy, 298 K",in O,-1.01 kcal/mol
C=C1C2CCC(C2)C1(C)C (configuration not stated),"solvation free energy, 298 K",in O,0.61 kcal/mol
Sc1ccccc1,"solvation free energy, 298 K",in O,-2.55 kcal/mol
C=CCCCC=C,"solvation free energy, 298 K",in CCCCOC(C)=O,-4.42 kcal/mol
same,"solvation free energy, 298 K",in CCOC(C)=O,-4.6 kcal/mol
same,"solvation free energy, 298 K",in O,1.16 kcal/mol
COc1cc(C(C)=O)ccc1O,"solvation free energy, 298 K",in CCC(C)=O,-12.2 kcal/mol
same,"solvation free energy, 298 K",in CCCO,-11.8 kcal/mol
same,"solvation free energy, 298 K",in Cc1ccccc1,-10.8 kcal/mol
same,"solvation free energy, 298 K",in ClC=CCl,-12 kcal/mol
